Drawing on EP0115640A2, “Substituted 4-imidazolyl-pyrazoles, process for their preparation and medicaments containing them” (BAYER AG, priority 1983, dated 1984), this text covers minimal effective concentration and Thrombozytenaggregation gehemmt for five compounds.

The subject of one assay is Thrombozytenaggregation. Description: Inhibition of collagen-induced platelet aggregation in platelet-rich plasma (turbidimetric method, aggregometer). It counts as cell-based, Human. The conditions noted are these: Homo sapiens, Platelet; PRP, 37°C, aggregation triggered with Kollagensuspension; minimal concentration that inhibits aggregation; read-out: Hemmung der Thrombozytenaggregation minimal effektive Konzentration. The source says: Thrombozytenaggregationshemmung
Für die Bestimmung der thrombozytenaggregationshemmenden Wirkung wurde Blut von gesunden Spendern, die mindestens 14 Tage lang kein Medikament eingenommen hatten, verwendet. Das Blut wurde in 3,8 %-iger Natriumcitratlösung aufgenommen. Plättchenreiches Plasma (PRP) wurde durch 20 Minuten Zentrifugation bei 150 g und Raumtemperatur gewonnen (Jürgens/Beller: Klinische Methoden der Blutgerinnungsanalyse; Thieme-Verlag Stuttgart 1959). Die Plättchenaggregation wurde nach der turbidometrischen Methode (Born, G.V.R.: J. Physiol. 162, 67 (1962)) im Aggregometer bei 37°C bestimmt. Hierzu wurde PRP mit Prüfsubstanz bei 37°C inkubiert und anschließend die Aggregation durch Zugabe einer Kollagensuspension ausgelöst. Bestimmt wurde die minimale Konzentration einer Prüfsubstanz, die die Thrombozytenaggregation hemmte.
In diesem Test wird die Thrombozytenaggregation insbesondere durch die Verbindungen folgender Herstellungsbeispiele gehemmt: 1, 2, 9 und 15.
On to `Cn1cc(-n2ccnc2)c(C(C)(C)COc2ccc(Cl)cc2)n1` [Beispiel 15], for which the minimal effective concentration was determined as 30 µg/mL.

Consider `c1c[nH]cn1` [Imidazol], for which the minimal effective concentration worked out at 30 µg/mL.

Still in this assay, the particulars now being: result in words, PRP, collagen-induced.
For the compound `CC(C)(C)c1n[nH]cc1-n1ccnc1` [Beispiel 1], the Thrombozytenaggregation gehemmt result is listed as “gehemmt”.

With `Cn1cc(-n2ccnc2)c(C(C)(C)C)n1` [Beispiel 2, 3-tert.-Butyl-1-methyl-4-(imidazol-1-yl)-pyrazol], the Thrombozytenaggregation gehemmt entry is “gehemmt”. Regarding `CC(C)(COc1ccc(Cl)cc1Cl)c1n[nH]cc1-n1ccnc1` [Beispiel 9], the Thrombozytenaggregation gehemmt entry was “gehemmt”. Turning to `Cn1cc(-n2ccnc2)c(C(C)(C)COc2ccc(Cl)cc2)n1` [Beispiel 15], the Thrombozytenaggregation gehemmt result was “gehemmt”.
